Data published in PMC7038240 (Antimicrobial Agents and Chemotherapy, 2020).
Where two headings read alike, the source gives them in different places.

Experiments:
Type in all cases: cell-based
[1] = test system: P. aeruginosa; assay: microbe, parasite or virus in culture; conditions: Pseudomonas aeruginosa, read-out: MIC
From the text: (§1) The antibacterial activity of cefepime-taniborbactam was compared to that of ceftazidime-avibactam, ceftolozane-tazobactam, and cefepime-tazobactam against a diverse panel of Enterobacterales and P. aeruginosa clinical isolates with defined β-lactamase subtypes (see Table S1 in the supplemental material). IMP-producing strains were excluded, as none of the BLI-protected cephalosporins inhibited IMP sufficiently to provide a clinically relevant rescue of the partner β-lactam, a characteristic also shared by approved BLI-protected carbapenems (meropenem-vaborbactam and imipenem-relebactam). […] The antibacterial activity of the cephalosporins alone was included to ascertain the level of potentiation by the partnered BLI. BLIs were tested at a fixed concentration of 4 μg/ml in all combinations except cefepime-tazobactam, where tazobactam was fixed at a concentration of 8 μg/ml ([38]). The collection comprised 143 clinical isolates collected from 2005 and 2018.
(§2) The in vitro antibacterial activity of the β-lactams alone or in combination with the BLIs was determined in cation-adjusted Mueller-Hinton broth (CAMHB) microdilution assays according to CLSI recommendations ([51]). […]. The inocula for the broth microdilution assays were prepared by the broth culture method ([51]). […]

[2] = test system: S. typhi; assay: microbe, parasite or virus in culture; conditions: Salmonella enterica, strain 26A, AmpC/TEM-1
From the text: as §1, §2

[3] = test system: K. pneumoniae; assay: microbe, parasite or virus in culture; conditions: Klebsiella pneumoniae, read-out: MIC
From the text: as §1, §2

[4] = test system: S. paratyphi; assay: microbe, parasite or virus in culture; conditions: Salmonella enterica, strain 527, AmpC/TEM-1
From the text: as §1, §2

[5] = test system: K. oxytoca; assay: microbe, parasite or virus in culture; conditions: Klebsiella oxytoca, read-out: MIC
From the text: as §1, §2

[6] = test system: K. aerogenes; assay: microbe, parasite or virus in culture; conditions: Klebsiella aerogenes
From the text: as §1, §2

[7] = test system: S. marcescens; assay: microbe, parasite or virus in culture; conditions: Serratia marcescens
From the text: as §1, §2

[8] = test system: E. coli; assay: microbe, parasite or virus in culture; conditions: Escherichia coli, read-out: MIC
From the text: as §1, §2

[9] = test system: C. freundii; assay: microbe, parasite or virus in culture; conditions: Citrobacter freundii
From the text: as §1, §2

[10] = test system: M. morgannii; assay: organism not typed; conditions: strain 769909; OXA-48
From the text: as §1, §2

Structure (SMILES): Cn1c(N)c(NC(=O)NCCN)c[n+]1CC1=C(C(=O)O)N2C(=O)[C@@H](NC(=O)/C(=N\OC(C)(C)C(=O)[O-])c3nsc(N)n3)[C@H]2SC1 [TOL]
- MIC ([1]; ATCC27853, strain ATCC 27853, W.T.): 1 µg/mL
- MIC ([1]; strain 10.257, PDC-50): 16 µg/mL
- MIC ([1]; strain 11.516, PDC-79): 64 µg/mL
- MIC ([1]; strain 11.698, PDC-87): 32 µg/mL
- MIC ([1]; strain 11.813, PDC-91): 8 µg/mL
- MIC ([1]; strain 13.1716, PDC-74): 128 µg/mL
- MIC ([1]; strain 13.1717, PDC-74): 64 µg/mL
- MIC ([1]; strain 13.1737, PDC-80): 128 µg/mL
- MIC ([1]; strain 13.1755, PDC-86): 128 µg/mL
- MIC ([1]; strain 13.1760, PDC-77): 32 µg/mL
- MIC ([1]; strain 13.1775, PDC-87): 16 µg/mL
- MIC ([1]; strain 247.3D, VIM-2): ≥ 256 µg/mL
- MIC ([1]; strain 1129, PDC): 1 µg/mL
- MIC ([1]; strain 3615, PDC/TEM-1): 4 µg/mL
- MIC ([1]; strain 5671, VIM-1): 64 µg/mL
- MIC ([1]; strain 8273, PDC/TEM-1): 1 µg/mL
- MIC ([1]; strain 164951, W.T.): 1 µg/mL
- MIC ([1]; strain 377860, W.T.): 1 µg/mL
- MIC ([1]; strain 384743, PDC/TEM-1): 16 µg/mL
- MIC ([1]; strain 1013996, KPC-2): 16 µg/mL
- MIC ([1]; strain 1071703, GES-6): 32 µg/mL
- MIC ([1]; strain 1113755, GES-5): ≥ 256 µg/mL
- MIC ([1]; strain 1138223, GES-19): ≥ 256 µg/mL
- MIC ([1]; strain 1138337, GES-19): ≥ 256 µg/mL
- MIC ([1]; strain 1258509, GES-6): 64 µg/mL
- MIC ([1]; strain 1275655, GES-20): ≥ 256 µg/mL
- MIC ([1]; strain 1300089, GES-19): ≥ 256 µg/mL
- MIC ([1]; strain 1313666, KPC-2): 32 µg/mL
- MIC ([1]; strain CDC-0090, KPC): 32 µg/mL
- MIC ([1]; strain PA2, W.T.): 2 µg/mL
- MIC ([1]; strain PAA1-9G1, GES-5): ≥ 256 µg/mL
- MIC ([1]; strain PAA1-9G2, GES-5): ≥ 256 µg/mL
- MIC ([1]; strain PS-12, VIM-2): ≥ 256 µg/mL
- MIC ([1]; strain PS-32, VIM-2): 128 µg/mL
- MIC ([1]; strain Paeβ-04, 100-fold ↑ PDC-2/30% OprD/5.6x ↑ABM): 2 µg/mL
- MIC ([1]; strain Paeβ-10, 67-fold ↑ PDC-2/0.1% OprD/5.7x↑ABM): 2 µg/mL
- MIC ([1]; strain Paeβ-15, 310-fold ↑ PDC-2/10% OprD/4.4x↑XYM): 4 µg/mL
- MIC ([1]; strain Paeβ-17, 62-fold ↑PDC-3/30% OprD/10.2x and 9.9x ↑XYM and CDJ): 2 µg/mL
- MIC ([1]; strain Paeβ-18, 600-fold ↑ PDC-3/<0.01% OprD/3.9x and 5.6x ↑ABM and XYM): 16 µg/mL
- MIC ([1]; strain Paeβ-21, 200-fold ↑ PDC-4/10% OprD/13.5x ↑XYM): 2 µg/mL
- MIC ([1]; strain Ps296, VIM-2): ≥ 256 µg/mL
- MIC [2]: 16 µg/mL
- MIC ([3]; strain 6299, OXA-163): ≥ 256 µg/mL
- MIC ([3]; strain 137052, SHV-11/KPC-3/TEM-1): 64 µg/mL
- MIC ([3]; strain 178279, SHV-12/TEM-1/AmpC): 64 µg/mL
- MIC ([3]; strain 196477, AmpC): ≥ 256 µg/mL
- MIC ([3]; strain 212027, AmpC/FOX-5/TEM-1): 8 µg/mL
- MIC ([3]; strain 515746, OXA-48): 128 µg/mL
- MIC ([3]; strain 664438, OXA-48): 128 µg/mL
- MIC ([3]; strain 664439, OXA-48): 128 µg/mL
- MIC ([3]; strain 722870, OXA-48): 64 µg/mL
- MIC ([3]; strain 752334, OXA-48): ≥ 256 µg/mL
- MIC ([3]; strain 769972, OXA-48): 128 µg/mL
- MIC ([3]; strain 787422, OXA-48): 64 µg/mL
- MIC ([3]; strain 845661, KPC): ≥ 256 µg/mL
- MIC ([3]; strain 847204, KPC): 64 µg/mL
- MIC ([3]; strain 848562, KPC): ≥ 256 µg/mL
- MIC ([3]; strain 848600, KPC): ≥ 256 µg/mL
- MIC ([3]; strain 848828, KPC): 128 µg/mL
- MIC ([3]; strain 849170, KPC): 128 µg/mL
- MIC ([3]; strain 856819, SHV-11/VIM-1): ≥ 256 µg/mL
- MIC ([3]; strain 864085, KPC): ≥ 256 µg/mL
- MIC ([3]; strain 871489, KPC): ≥ 256 µg/mL
- MIC ([3]; strain 873460, SHV-30/CTX-M-15): 128 µg/mL
- MIC ([3]; strain 874328, SHV-11/CTX-M-15/NDM-1): ≥ 256 µg/mL
- MIC ([3]; strain 882752, SHV-11/TEM-1/KPC-3): 128 µg/mL
- MIC ([3]; strain 882956, SHV-31/DHA-1/VIM-1): ≥ 256 µg/mL
- MIC ([3]; strain 884679, KPC): 64 µg/mL
- MIC ([3]; strain 890066, SHV-33/TEM-33/CTX-M-15/IMP-1): ≥ 256 µg/mL
- MIC ([3]; strain 892694, SHV-12/TEM-1/CTX-M-15/OXA-48/ACT): ≥ 256 µg/mL
- MIC ([3]; strain 919877, SHV-OSBL/VIM-1): ≥ 256 µg/mL
- MIC ([3]; strain 1104864, SHV-OSBL(b)/VIM-1): ≥ 256 µg/mL
- MIC ([3]; strain 1104866, SHV-OSBL(b)/VIM-1): ≥ 256 µg/mL
- MIC ([3]; strain 1280442, SHV-OSBL(b)/VIM-1): ≥ 256 µg/mL
- MIC ([3]; strain CDC-0003, KPC): 128 µg/mL
- MIC ([3]; strain CDC-0049, NDM): ≥ 256 µg/mL
- MIC ([3]; strain CDC-0117, KPC-3): 128 µg/mL
- MIC ([3]; strain CDC-0125, KPC-3): 128 µg/mL
- MIC ([3]; strain CDC-0139, NDM-1): ≥ 256 µg/mL
- MIC ([3]; strain CDC-0145, NDM): ≥ 256 µg/mL
- MIC ([3]; strain CDC-0148, NDM): ≥ 256 µg/mL
- MIC ([3]; strain CDC-0152, NDM): ≥ 256 µg/mL
- MIC ([3]; strain DOV, OXA-48): 128 µg/mL
- MIC ([3]; strain ESBL8 #1, TEM-1/SHV-12): 32 µg/mL
- MIC ([3]; strain ESBL 10, SHV-12/TEM-1): 32 µg/mL
- MIC ([3]; strain KIRK, OXA-162): 128 µg/mL
- MIC ([3]; strain KP 3, SHV-1/TEM-1): ≥ 256 µg/mL
- MIC ([3]; strain KPN 508, SHV-7/TEM-1): 32 µg/mL
- MIC ([3]; strain SI-C05, OXA-48): ≥ 256 µg/mL
- MIC ([3]; strain SI-F100, SHV-5/TEM-1/CMY-2): 16 µg/mL
- MIC ([3]; strain SI-KP NO30, TEM-26b/SHV-60/SHV-26): 64 µg/mL
- MIC [4]: 32 µg/mL
- MIC ([5]; strain 134943, CMY-2/TEM-1): 8 µg/mL
- MIC ([5]; strain 847537, KPC): ≥ 256 µg/mL
- MIC ([6]; strain 73546, AmpC): 4 µg/mL
- MIC ([6]; strain 110099, AmpC/SHV-12): 64 µg/mL
- MIC ([6]; strain 111707, AmpC/TEM-1): 4 µg/mL
- MIC ([7]; strain 134434, AmpC/SHV-12/TEM-1): 64 µg/mL
- MIC ([7]; strain 192476, AmpC/TEM-1/SHV-5): 64 µg/mL
- MIC ([7]; strain 192478, AmpC/SHV-12/TEM-1): 64 µg/mL
- MIC ([7]; strain 218073, AmpC/SHV-7/TEM-1): 64 µg/mL
- MIC ([8]; strain 469, AmpC/SHV-12/TEM-1): 8 µg/mL
- MIC ([8]; strain 1924, TEM-12): 16 µg/mL
- MIC ([8]; strain 664507, OXA-48): 64 µg/mL
- MIC ([8]; strain 664516, OXA-48): 64 µg/mL
- MIC ([8]; strain 664520, OXA-48): 64 µg/mL
- MIC ([8]; strain 664522, OXA-48): 128 µg/mL
- MIC ([8]; strain 664523, OXA-48): 64 µg/mL
- MIC ([8]; strain 849121, KPC): 32 µg/mL
- MIC ([8]; strain 873435, CTX-M-15): 128 µg/mL
- MIC ([8]; strain 875627, CTX-M-27): 16 µg/mL
- MIC ([8]; strain 878358, TEM-1/CTX-M): 64 µg/mL
- MIC ([8]; strain 890500, TEM-1/CTX-M-14): 8 µg/mL
- MIC ([8]; strain 1275635, VIM-23): ≥ 256 µg/mL
- MIC ([8]; strain 1459453, NDM-7): ≥ 256 µg/mL
- MIC ([8]; strain CDC-0001, KPC): 64 µg/mL
- MIC ([8]; strain CDC-0069, NDM): ≥ 256 µg/mL
- MIC ([8]; strain CDC-0149, NDM): ≥ 256 µg/mL
- MIC ([8]; strain EC1552 2A, AmpC/CMY-2/TEM-1, CTX-M-15): 16 µg/mL
- MIC ([8]; strain ESBL 5, CTX-M-15/TEM-1): 128 µg/mL
- MIC ([8]; strain SI-LP377, CTX-M-2): 32 µg/mL
- MIC ([8]; strain SI-M004, SHV-2/GES-12): 64 µg/mL
- MIC ([8]; strain SI-PO26, AmpC/CMY-2/TEM-1): 8 µg/mL
- MIC ([8]; strain SI-V502, TEM-29/CTX-M-15): 8 µg/mL
- MIC ([8]; strain VER, OXA-48): 2 µg/mL
- MIC ([9]; strain 134390, AmpC/TEM-1): 8 µg/mL
- MIC ([9]; strain 241181, AmpC/TEM-163): 16 µg/mL
- MIC [10]: 8 µg/mL
